The source of these data is US11744870B2, “Traditional Chinese medicine composition for treating metabolic syndrome and preparations thereof” (JIANGSU JIUXU PHARMACEUTICAL CO., LTD., priority 2018, dated 2023).

Common to all, as to assay type: in vivo
The subject of experiment [1] is KKAy mice with spontaneous type 2 diabetes. As to the kind of experiment: Fasting blood glucose, blood insulin and insulin sensitivity index in KKAy mice. To be noted: 28th day, 150 mg/kg.
Experimental: The KKAy mice with spontaneous type 2 diabetes were divided into 5 groups based on the following five indexes: blood glucose reduction percentage within 40 min in an insulin tolerance test, fasting blood glucose, blood TG, blood TC, and weight. […] Animals in the three dosage groups underwent gavage with 500, 1000, and 1500 mg/kg of the traditional Chinese medicine extract composition of the present invention respectively. […] Gavage was performed once a day for 58 consecutive days, and fasting blood glucose and blood insulin level were measured (ELISA method) at the same time when a glucose tolerance test was carried out on the animals in each group on the 28th day of administration, and an insulin sensitivity index (ISI) was calculated, wherein ISI=1/(FBGmg/dl×FBIng/ml).
The test system is the same in experiment [2]. Briefly: Glycosylated hemoglobin (HbA1c) level in KKAy mice. To be noted: 48th day, 150 mg/kg. The method, then:
(§1) The female KKAy mice with spontaneous type 2 diabetes were fed with a diet dedicated for KKAy mice, with 5 mice in each cage. When the mice weighed over 40 g, prediction of a plurality of indexes such as blood glucose, blood lipid, and insulin resistance were performed. Based on fasting blood glucose, blood glucose reduction percentage within 40 min in an insulin tolerance test, blood triglyceride (TG), total cholesterol (TC), and weight, the mice were divided into 5 groups, with 12 mice in each group.
The KKAy mice with spontaneous type 2 diabetes were divided into 5 groups based on the following five indexes: blood glucose reduction percentage within 40 min in an insulin tolerance test, fasting blood glucose, blood TG, blood TC, and weight. […] Animals in the three dosage groups underwent gavage with 500, 1000, and 1500 mg/kg of the traditional Chinese medicine extract composition of the present invention respectively. The female C57BL/6J mice were used as a normal animal control group (Nor, underwent gavage with a equal volume of water, n=10). Gavage was performed once a day for 58 consecutive days, and blood was collected from the tail tip on the 48th day to measure the glycosylated hemoglobin level.

Experiment [3] has the same test system. Briefly: Serum triglyceride and total cholesterol in KKAy mice. The conditions noted are these: 14th day, 150 mg/kg. The method, then:
as §1
The KKAy mice with spontaneous type 2 diabetes were divided into 5 groups based on the following five indexes: blood glucose reduction percentage within 40 min in an insulin tolerance test, fasting blood glucose, blood TG, blood TC, and weight. […] The female C57BL/6J mice were used as a normal animal control group (Nor, underwent gavage with a equal volume of water, n=10). Gavage was performed once a day for 58 consecutive days, and at the same time when the animals in each group underwent an insulin tolerance test on the 14th day of administration, blood was collected to measure the serum triglyceride (TG) and total cholesterol (TC) levels.

Experiment [4] shares this test system. As to the kind of experiment: Hyperinsulinemic-euglycemic clamp in KKAy mice. To be noted: after 54th day, SSBG 6.0 mmol/L, IIR 20.0 mU/kg/min, 150 mg/kg. On the procedure: as §1
The KKAy mice with spontaneous type 2 diabetes were divided into 5 groups based on the following five indexes: blood glucose reduction percentage within 40 min in an insulin tolerance test, fasting blood glucose, blood TG, blood TC, and weight. […] The female C57BL/6J mice were used as a normal animal control group (Nor, underwent gavage with a equal volume of water, n=10). Gavage was performed once a day for 58 consecutive days, and After the 54th day of administration to the animals in each group, 5-6 mice were randomly selected from different groups to carry out a hyperinsulinemic-euglycemic clamp test each day.

The test system is the same in experiment [5]. As to the kind of experiment: Blood pressure of KKAy mice (non-invasive sphygmomanometer). The conditions noted are these: 53rd day, 150 mg/kg.
Experimental: The KKAy mice with spontaneous type 2 diabetes were divided into 5 groups based on the following five indexes: blood glucose reduction percentage within 40 min in an insulin tolerance test, fasting blood glucose, blood TG, blood TC, and weight. […] The female C57BL/6J mice were used as a normal animal control group (Nor, underwent gavage with a equal volume of water, n=10). Gavage was performed once a day for 58 consecutive days, and onOn the 53rd day of administration to the animals in each group, the blood pressure was measured by using an intelligent non-invasive sphygmomanometer (BP98A, Beijing Ruanlong Biotechnology Co., Ltd.).
In experiment [6] the test system is C57BL/6J mice fed with a high-fat diet. Briefly: Insulin tolerance test in C57BL/6J mice fed with a high-fat diet. The conditions noted are these: 10th day, 150 mg/kg. The method, then: The male C57BL/6J mice were fed with a high-fat and high-nutrient diet, with 5 mice in each cage. When the mice weighed over 45 g, prediction of a plurality of indexes such as blood glucose, blood lipid, and insulin resistance were performed. Based on fasting blood glucose, blood glucose reduction percentage within 40 min in an insulin tolerance test, blood TG, blood TC, and weight, the mice were divided into 5 groups, with 12 mice in each group.
C57BL/6J mice fed a with high-fat diet and weighing more than 45 g were selected for multi-index prediction tests such as blood glucose, blood lipids, and insulin resistance, and were divided into 5 groups based on the following five indexes: blood glucose reduction percentage within 40 min in an insulin tolerance test, fasting blood glucose, blood TG, blood TC, and weight, with 12 mice in each group. […] Male C57BL/6J mice were used as a normal animal control group. Animals in the positive drug group and each test drug group underwent gavage with a corresponding dosage of the test drug each day. The normal control group and model group underwent gavage with an equal volume of water once a day for 30 days. Animals in each group underwent an insulin tolerance test on the 10th day of the administration. On the test day, the animals fasted for 4 hours (free to drink water), blood was collected from the tail tip (0 min), and then regular insulin (0.4 U/kg) was injected subcutaneously.

Compound `CN(C)C(=N)N=C(N)N` [Met, metformin] returned a Blood insulin in experiment [1] (ELISA) of 36.3 ± 27.6 ng/mL. For the same compound, the ISI in experiment [1] (ISI=1/(FBGmg/dl×FBIng/ml)) is on record as 0.26 ± 0.16 ×10^−3. The compound further registered a HbA1c in experiment [2] of 4.34 ± 0.83 %. For the same compound, the “Serum TC” value in experiment [3] is reported as 243.8 ± 44.0 mg/dL. Moreover, the “Serum TG” value in experiment [3] is 253.2 ± 172.6 mg/dL. Also, the GIR in experiment [4] was 14.5 ± 0.6 mg/kg · min. The same compound gave a BP in experiment [5] of 118.7 ± 10.8 mmHG. Also, the Glu is recorded as 104.5 ± 7.6 mg/dL in experiment [6] (0 min), 78.3 ± 10.3 mg/dL in experiment [6] (40 min) and 87.5 ± 24.6 mg/dL in experiment [6] (90 min).
